Results as given in BindingDB's records for PubMed 9454790 (University of Arizona, 1998).

Assays:
[1] = target: T1, Muscarinic acetylcholine receptor M2 (Homo sapiens, UniProt P08172)
T1 sequence (P08172 whole entry): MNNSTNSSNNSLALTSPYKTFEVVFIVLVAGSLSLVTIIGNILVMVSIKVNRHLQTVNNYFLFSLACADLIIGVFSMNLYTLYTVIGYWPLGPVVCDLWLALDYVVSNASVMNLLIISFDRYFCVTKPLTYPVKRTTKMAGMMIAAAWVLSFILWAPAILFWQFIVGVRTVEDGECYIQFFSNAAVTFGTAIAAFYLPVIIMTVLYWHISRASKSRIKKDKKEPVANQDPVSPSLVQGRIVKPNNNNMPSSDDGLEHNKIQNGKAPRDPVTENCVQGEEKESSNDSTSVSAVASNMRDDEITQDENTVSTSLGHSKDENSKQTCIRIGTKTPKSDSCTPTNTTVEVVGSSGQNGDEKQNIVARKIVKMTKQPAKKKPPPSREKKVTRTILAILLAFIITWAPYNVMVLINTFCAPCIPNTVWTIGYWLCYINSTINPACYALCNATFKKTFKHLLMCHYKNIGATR

[2] = target: T2, Muscarinic acetylcholine receptor M2 (Rattus norvegicus, UniProt P10980)
T2 sequence (P10980 whole entry): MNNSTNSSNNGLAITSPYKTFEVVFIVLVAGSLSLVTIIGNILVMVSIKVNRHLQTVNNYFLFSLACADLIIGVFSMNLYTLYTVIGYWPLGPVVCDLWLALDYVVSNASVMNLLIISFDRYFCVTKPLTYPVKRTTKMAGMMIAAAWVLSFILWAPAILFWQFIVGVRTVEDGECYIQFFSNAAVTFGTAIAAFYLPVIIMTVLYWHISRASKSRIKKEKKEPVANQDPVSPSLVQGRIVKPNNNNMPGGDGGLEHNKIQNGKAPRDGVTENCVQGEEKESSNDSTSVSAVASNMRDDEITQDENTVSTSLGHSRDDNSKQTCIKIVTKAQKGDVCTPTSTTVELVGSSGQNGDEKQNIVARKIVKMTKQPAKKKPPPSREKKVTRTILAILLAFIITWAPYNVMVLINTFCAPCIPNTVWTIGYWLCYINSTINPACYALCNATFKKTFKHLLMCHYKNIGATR

Row | SMILES | Ki [1] [nM] | Ki [2] [nM]
1 | CN(C)CCCN1c2ccccc2CCc2ccccc21 | 0.13 | 
2 | CC[N+](CC)(CC)CCOc1cccc(OCC[N+](CC)(CC)CC)c1OCC[N+](CC)(CC)CC |  | 2610
3 | O=C1CCCN1CC#CCN1CCCC1 [1-[4-(2-oxo-pyrrolidin-1-yl)-but-2-ynyl]-pyrrolidinium] | 235 | 290
4 | CCN(CC)CC1CCCCN1CC(=O)N1c2ccccc2C(=O)Nc2cccnc21 (configuration not stated) [(AF-DX 116) 11-[2-(2-Diethylaminomethyl-piperidin-1-yl)-acetyl]-5,11-dihydro-benzo[e]pyrido[3,2-b][1,4]diazepin-6-one] | 67 | 50
5 | COc1cc2c3cc1Oc1cc(ccc1O)C[C@H]1c4c(cc(OC)c(O)c4Oc4ccc(cc4)C[C@@H]3N(C)CC2)CC[N+]1(C)C [CAS_57-94-3] | 97 | 
6 | C[N+]1(C)CCO[C@@](O)(c2ccc(-c3ccc([C@@]4(O)C[N+](C)(C)CCO4)cc3)cc2)C1 [CAS_312-45-8] | 11 | 
7 | C[N+](C)(C)CCCCCCCCCC[N+](C)(C)C [Decamethonium Iodide] | 25 | 
8 | C[C@H]1OC(=O)C2C[C@H]3CCCC[C@@H]3[C@@H](/C=C/[C@@H]3CCC[C@H](C)N3C)C21 (some centres not stated) [HIMBACINE] | 12 | 14
9 | C=C[C@@H]1CN2CC[C@H]1C[C@@H]2[C@H](O)c1ccnc2ccc(OC)cc12 [Quinidine] | 7.5 | 
